According to PubChem BioAssay AID192 (DTP/NCI, 2004):
Several values for one entry are separate records, joined by “and”; a condition that tells them apart may be missing. Equal values may be shown once. Inconclusive results and toxic doses are left out. Rule for the calls: active = survival T/C of 150% or more; inactive = T/C below 125% in these data.

Tested on: BDF1 mice, B16 melanoma ip, median survival T/C
Test: NCI In Vivo Anticancer Drug Screen. Data for tumor model B16 Melanoma (intraperitoneal) in B6D2F1 (BDF1) mice
Conditions: endpoint: median survival time, higher = longer survival
Procedure, shortened: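 Antitumor activity is assessed in mice bearing a transplanted tumor, with survival or tumor size compared against vehicle-dosed controls and expressed as T/C.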

[1] = dose: 100.0 mg/kg/injection, schedule: Q04DX003 (ip), vehicle: Klucel (hydroxypropylcellulose) (HPC)
[2] = dose: 200.0 mg/kg/injection, schedule: Q04DX003 (ip), vehicle: Klucel (hydroxypropylcellulose) (HPC)
[3] = dose: 400.0 mg/kg/injection, schedule: Q04DX003 (ip), vehicle: Klucel (hydroxypropylcellulose) (HPC)
[4] = dose: 50.0 mg/kg/injection, schedule: Q01DX009 (ip), vehicle: Klucel (hydroxypropylcellulose) (HPC)
[5] = dose: 100.0 mg/kg/injection, schedule: Q01DX009 (ip), vehicle: Klucel (hydroxypropylcellulose) (HPC)
[6] = dose: 200.0 mg/kg/injection, schedule: Q01DX009 (ip), vehicle: Klucel (hydroxypropylcellulose) (HPC)
[7] = dose: 100.0 mg/kg/injection, schedule: Q01DX009 (ip), vehicle: saline with Tween-80
[8] = dose: 200.0 mg/kg/injection, schedule: Q01DX009 (ip), vehicle: saline with Tween-80
[9] = dose: 400.0 mg/kg/injection, schedule: Q01DX009 (ip), vehicle: saline with Tween-80
[10] = dose: 1.56 mg/kg/injection, schedule: Q01DX009 (ip), vehicle: Klucel (hydroxypropylcellulose) (HPC)
[11] = dose: 3.12 mg/kg/injection, schedule: Q01DX009 (ip), vehicle: Klucel (hydroxypropylcellulose) (HPC)
[12] = dose: 6.25 mg/kg/injection, schedule: Q01DX009 (ip), vehicle: Klucel (hydroxypropylcellulose) (HPC)
[13] = dose: 50.0 mg/kg/injection, schedule: Q01DX009 (ip), vehicle: saline with Tween-80
[14] = dose: 12.5 mg/kg/injection, schedule: Q01DX009 (ip), vehicle: Klucel (hydroxypropylcellulose) (HPC)
[15] = dose: 25.0 mg/kg/injection, schedule: Q01DX009 (ip), vehicle: Klucel (hydroxypropylcellulose) (HPC)
[16] = dose: 12.5 mg/kg/injection, schedule: Q01DX009 (ip), vehicle: saline
[17] = dose: 25.0 mg/kg/injection, schedule: Q01DX009 (ip), vehicle: saline
[18] = dose: 50.0 mg/kg/injection, schedule: Q01DX009 (ip), vehicle: saline
[19] = dose: 100.0 mg/kg/injection, schedule: Q01DX009 (ip), vehicle: saline
[20] = dose: 400.0 mg/kg/injection, schedule: Q01DX009 (ip), vehicle: Klucel (hydroxypropylcellulose) (HPC)
[21] = dose: 6.25 mg/kg/injection, schedule: Q01DX009 (ip), vehicle: saline
[22] = dose: 25.0 mg/kg/injection, schedule: Q04DX003 (ip), vehicle: saline with Tween-80
[23] = dose: 50.0 mg/kg/injection, schedule: Q04DX003 (ip), vehicle: saline with Tween-80

Measured: T/C

O=C(Nc1ccccc1Cl)Oc1ccccc1Cc1ccccc1
inactive: [1] 100 % of control | [2] 106 % of control | [3] 93 % of control

CC(=O)NS(=O)(=O)c1ccc(NC(=O)c2ccccc2C(=O)O)cc1
inactive: [4] 98 % of control | [5] 96 % of control | [6] 93 % of control

CCCCCCCCC(O)CC (stereo not drawn)
inactive: [4] 98 % of control | [5] 97 % of control | [6] 93 % of control

CCc1cc(C)cc(OC(=O)Nc2ccc(Cl)c(Cl)c2)c1
inactive: [7] 101 % of control | [8] 92 % of control | [9] 87 % of control

CCN(CC)C(=O)C1CN2CCc3cc(OC)c(OC)cc3C2CC1OC(C)=O (stereo not drawn)
inactive: dose: 0.39 mg/kg/injection, schedule: Q01DX009 (ip), vehicle: Klucel (hydroxypropylcellulose) (HPC) 95 % of control | dose: 0.78 mg/kg/injection, schedule: Q01DX009 (ip), vehicle: Klucel (hydroxypropylcellulose) (HPC) 86 % of control | [10] 96 % of control | [11] 104 % of control | [12] 100 % of control | [4] 89 % of control | [5] 100 % of control

O=C1CSC(=S)N1c1ccco1
inactive: [13] 92 % of control | [7] 90 % of control | [8] 87 % of control

O=[N+]([O-])c1cc(F)cc([N+](=O)[O-])c1O
inactive: [14] 124 % of control | [15] 103 % of control | [4] 96 % of control

CC(N)C(=O)NC(CC(=O)O)C(=O)O (stereo not drawn)
inactive: [16] 99 % of control | [17] 93 % of control | [18] 98 % of control | [19] 93 % of control | dose: 200.0 mg/kg/injection, schedule: Q01DX009 (ip), vehicle: saline 98 % of control

NC(=O)CC1=NCCc2ccccc21
inactive: [17] 105 % of control | [18] 97 % of control | [19] 91 % of control and 105 % of control

[N-]=[N+]=CC(=O)CCC(=O)C=[N+]=[N-]
inactive: dose: 0.18 mg/kg/injection, schedule: Q01DX009 (ip), vehicle: other 92 % of control | dose: 0.37 mg/kg/injection, schedule: Q01DX009 (ip), vehicle: other 96 % of control | dose: 0.39 mg/kg/injection, schedule: Q01DX009 (ip), vehicle: other 123 % of control | dose: 0.75 mg/kg/injection, schedule: Q01DX009 (ip), vehicle: other 92 % of control | dose: 1.5 mg/kg/injection, schedule: Q01DX009 (ip), vehicle: other 104 % of control | dose: 1.56 mg/kg/injection, schedule: Q01DX009 (ip), vehicle: other 101 % of control and 117 % of control

COc1ccc(C(C)=O)cc1[N+](=O)[O-]
inactive: [13] 97 % of control | [7] 102 % of control | [8] 105 % of control

COc1ccccc1NC(=O)Nc1ccccc1OC
inactive: [5] 89 % of control | [6] 89 % of control | [20] 88 % of control

CC(C)OCc1c(N)nc(=S)[nH]c1C(=O)O
inactive: [17] 92 % of control | [18] 86 % of control

CC(=O)N(NC(C)C)C(C)C
inactive: [21] 111 % of control | [16] 103 % of control | [17] 99 % of control | [18] 102 % of control

COCC1OC(OC2OCC3OC4(OCC(O)(C(C)OC)C5OCOC54)OC3C2OC)C(OC)C(O)C1OC1OC(C)C(OC)C(OC2OC(C)C3OC4(CC(O)C(OC5CC(OC6CC(C)([N+](=O)[O-])C(OC)C(C)O6)C(OC(=O)c6c(C)c(Cl)c(O)c(Cl)c6OC)C(C)O5)C(C)O4)OC3(C)C2O)C1O (stereo not drawn)
inactive: [21] 97 % of control | [16] 95 % of control | [17] 100 % of control | [18] 101 % of control

CCN1C=C/C(=C\C=C/c2cc[n+](CC)c3ccccc23)c2ccccc21
inactive: dose: 6.0 micrograms/kg/injection, schedule: Q01DX009 (ip), vehicle: saline 106 % of control | dose: 12.0 micrograms/kg/injection, schedule: Q01DX009 (ip), vehicle: saline 110 % of control | dose: 25.0 micrograms/kg/injection, schedule: Q01DX009 (ip), vehicle: saline 115 % of control | dose: 50.0 micrograms/kg/injection, schedule: Q01DX009 (ip), vehicle: saline 106 % of control

CC(C)(C)OC(=O)N1CCCC1C(=O)Oc1ccc([N+](=O)[O-])cc1 (stereo not drawn)
inactive: [22] 94 % of control | [23] 109 % of control | dose: 100.0 mg/kg/injection, schedule: Q04DX003 (ip), vehicle: saline with Tween-80 104 % of control

CCCC1=NNc2n[nH]c(=S)n2N1
inactive: [14] 106 % of control | [15] 112 % of control | [4] 87 % of control

CCOC(=O)C(NC(C)=O)C(=O)OCC
inactive: [1] 90 % of control | [2] 102 % of control | [3] 95 % of control

c1ccc(CSSCc2ccccc2)cc1
inactive: [5] 113 % of control | [6] 114 % of control | [20] 108 % of control

COc1ccc([Se][Se]c2ccc(OC)cc2NC(C)=O)c(NC(C)=O)c1
inactive: [13] 102 % of control | [7] 92 % of control | [8] 100 % of control

C=C(Br)CNC(=O)CCC
inactive: dose: 2.5 mg/kg/injection, schedule: Q01DX009 (ip), vehicle: saline 103 % of control | dose: 5.0 mg/kg/injection, schedule: Q01DX009 (ip), vehicle: saline 112 % of control | dose: 10.0 mg/kg/injection, schedule: Q01DX009 (ip), vehicle: saline 104 % of control

O=C1N(c2nncs2)CCN1[N+](=O)[O-]
inactive: [14] 91 % of control | [15] 102 % of control | [4] 100 % of control | [6] 87 % of control

Cc1ccc(S(=O)(=O)NC(CSSCC(NS(=O)(=O)c2ccc(C)cc2)C(=O)OC(C)(C)C)C(=O)OC(C)(C)C)cc1 (stereo not drawn)
inactive: [4] 107 % of control

O=C(/C=C/c1cccc2ccccc12)c1ccc(Cl)cc1
inactive: [4] 92 % of control | dose: 50.0 mg/kg/injection, schedule: Q04DX003 (ip), vehicle: Klucel (hydroxypropylcellulose) (HPC) 103 % of control | [5] 96 % of control | [1] 100 % of control | [6] 92 % of control | [2] 93 % of control

C[Si](C)(C)c1cc(F)c(F)c(F)c1F
inactive: [1] 90 % of control | [2] 92 % of control | [3] 94 % of control

CCCCCCCCCC(=O)CCC
inactive: [5] 100 % of control | [6] 111 % of control | [20] 95 % of control

CC1=CCC=C(CNc2ncnc3nc[nH]c23)C1
inactive: dose: 3.13 mg/kg/injection, schedule: Q01DX009 (ip), vehicle: saline with Tween-80 102 % of control | dose: 6.25 mg/kg/injection, schedule: Q01DX009 (ip), vehicle: saline with Tween-80 102 % of control | dose: 12.5 mg/kg/injection, schedule: Q01DX009 (ip), vehicle: saline with Tween-80 90 % of control | dose: 12.5 mg/kg/injection, schedule: Q04DX003 (ip), vehicle: saline with Tween-80 100 % of control | [22] 102 % of control | [13] 88 % of control | [23] 102 % of control

O=C(O)c1ccc(SSc2ccc(C(=O)O)cn2)nc1
inactive: [5] 88 % of control | [1] 93 % of control | [6] 100 % of control | [2] 97 % of control | [20] 88 % of control | [3] 90 % of control

N=P(N[P+](N)(c1ccccc1)c1ccccc1)(c1ccccc1)c1ccccc1
inactive: [10] 101 % of control | [11] 107 % of control | [12] 108 % of control

O=C(O)CCS(=O)(=O)CCC(=O)O
inactive: [13] 102 % of control | [7] 100 % of control | [8] 102 % of control

CCNC(C)(C)C(SSSC(c1ccc(Cl)cc1)C(C)(C)NCC)c1ccc(Cl)cc1 (stereo not drawn)
inactive: [12] 108 % of control | [14] 94 % of control | [15] 89 % of control and 94 % of control

Cc1cnc2c(=N)n(C(=O)C(F)(F)F)n(C)c2n1
inactive: [5] 90 % of control | [6] 94 % of control

Nc1nc(N)nc(N)n1
inactive: [5] 100 % of control | [7] 102 % of control | [6] 100 % of control | [8] 102 % of control | [20] 105 % of control | [9] 87 % of control | dose: 800.0 mg/kg/injection, schedule: Q01DX009 (ip), vehicle: saline with Tween-80 90 % of control

CC(=O)ON(C(C)=O)c1ccc(C(N)=O)cc1
inactive: dose: 25.0 mg/kg/injection, schedule: Q01DX009 (ip), vehicle: saline with Tween-80 91 % of control | [13] 89 % of control | [7] 86 % of control | [8] 88 % of control | [9] 94 % of control

CC(C)(COC(=O)c1ccccc1)COC(=O)c1ccccc1
inactive: [5] 111 % of control | [6] 105 % of control | [20] 99 % of control
